According to ChEMBL document CHEMBL4351029, “Design and evaluation of pyrazolopyrimidines as KCNQ channel modulators” (Bioorg Med Chem Lett, 2019):

Tests used:
[1] = biological target: Voltage-gated potassium channel, KQT; KCNQ2(Kv7.2)/KCNQ3(Kv7.3) (Homo sapiens, UniProt O43525+O43526); assay: Agonist activity at human KCNQ2/3 expressed in HEK293 cells by FLIPR based thallium influx assay; type: cell-based
[2] = biological target: Voltage-gated potassium channel, KQT; KCNQ2(Kv7.2)/KCNQ3(Kv7.3) (Homo sapiens) (UniProt O43526+O43525); assay: Agonist activity at human KCNQ2/3 expressed in HEK293 cells by FLIPR based thallium influx assay relative to retigabine; type: cell-based
Rattus norvegicus [3] = assay: Antiallodynic activity in rat model of capsaicin-induced mechanical hyperalgesia assessed as increase in paw withdrawal threshold at 100 mg/kg, ip administered 30 mins before capsaicin addition relative to control; type: functional
Rattus norvegicus [4] = assay: Antiallodynic activity in rat model of capsaicin-induced mechanical hyperalgesia assessed as increase in paw withdrawal threshold at 30 mg/kg, ip administered 30 mins before capsaicin addition relative to control; type: functional
Rattus norvegicus [5] = assay: Antiallodynic activity in rat model of capsaicin-induced mechanical hyperalgesia assessed as increase in paw withdrawal threshold at 3 mg/kg, ip administered 30 mins before capsaicin addition relative to control; type: functional
[6] = Ratio of drug level in brain to plasma in rat; type: ADME; details: read-out: BPR
Rattus norvegicus [7] = assay: Antiallodynic activity in rat model of capsaicin-induced mechanical hyperalgesia assessed as increase in paw withdrawal threshold at 10 mg/kg, ip administered 30 mins before capsaicin addition relative to control; type: functional
[8] = Half life in rat at 1 mg/kg, iv; type: ADME, organism-based; details: in vivo
[9] = Oral bioavailability in rat at 1 mg/kg; type: ADME, organism-based; details: in vivo
[10] = AUC in rat at 1 mg/kg, po; type: ADME, organism-based; details: in vivo
[11] = Plasma clearance in rat at 1 mg/kg. iv; type: ADME, organism-based
Rattus norvegicus [12] = assay: Antiallodynic activity in ip dosed rat model of capsaicin-induced mechanical hyperalgesia assessed as increase in paw withdrawal threshold administered 30 mins before capsaicin addition; type: functional, organism-based

Sequence of Voltage-gated potassium channel, KQT; KCNQ2(Kv7.2)/KCNQ3(Kv7.3) (O43526 whole entry): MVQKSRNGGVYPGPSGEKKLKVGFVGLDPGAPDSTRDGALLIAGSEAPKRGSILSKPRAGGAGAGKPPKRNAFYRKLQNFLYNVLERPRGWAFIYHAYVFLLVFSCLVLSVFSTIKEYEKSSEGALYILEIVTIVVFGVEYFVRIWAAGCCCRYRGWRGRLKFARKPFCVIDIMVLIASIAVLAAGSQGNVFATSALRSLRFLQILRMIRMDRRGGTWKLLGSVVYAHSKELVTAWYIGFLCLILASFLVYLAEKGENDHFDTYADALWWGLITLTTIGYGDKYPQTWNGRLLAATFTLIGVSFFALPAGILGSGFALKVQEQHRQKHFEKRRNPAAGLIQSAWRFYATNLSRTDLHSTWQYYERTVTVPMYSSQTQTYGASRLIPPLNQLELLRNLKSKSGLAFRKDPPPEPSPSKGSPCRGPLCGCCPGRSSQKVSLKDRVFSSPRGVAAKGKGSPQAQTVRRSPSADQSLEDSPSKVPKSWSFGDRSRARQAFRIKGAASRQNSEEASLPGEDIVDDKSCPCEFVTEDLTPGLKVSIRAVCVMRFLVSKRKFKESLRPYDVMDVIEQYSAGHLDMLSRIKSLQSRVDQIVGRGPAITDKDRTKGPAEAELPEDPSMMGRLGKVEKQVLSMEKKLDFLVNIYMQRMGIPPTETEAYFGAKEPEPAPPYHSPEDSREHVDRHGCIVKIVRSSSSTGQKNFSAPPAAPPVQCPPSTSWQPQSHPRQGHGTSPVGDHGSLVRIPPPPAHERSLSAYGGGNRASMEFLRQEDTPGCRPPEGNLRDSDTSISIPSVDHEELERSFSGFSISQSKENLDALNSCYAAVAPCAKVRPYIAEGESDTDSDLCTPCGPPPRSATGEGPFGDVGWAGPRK
Sequence of Voltage-gated potassium channel, KQT; KCNQ2(Kv7.2)/KCNQ3(Kv7.3) (O43525 whole entry): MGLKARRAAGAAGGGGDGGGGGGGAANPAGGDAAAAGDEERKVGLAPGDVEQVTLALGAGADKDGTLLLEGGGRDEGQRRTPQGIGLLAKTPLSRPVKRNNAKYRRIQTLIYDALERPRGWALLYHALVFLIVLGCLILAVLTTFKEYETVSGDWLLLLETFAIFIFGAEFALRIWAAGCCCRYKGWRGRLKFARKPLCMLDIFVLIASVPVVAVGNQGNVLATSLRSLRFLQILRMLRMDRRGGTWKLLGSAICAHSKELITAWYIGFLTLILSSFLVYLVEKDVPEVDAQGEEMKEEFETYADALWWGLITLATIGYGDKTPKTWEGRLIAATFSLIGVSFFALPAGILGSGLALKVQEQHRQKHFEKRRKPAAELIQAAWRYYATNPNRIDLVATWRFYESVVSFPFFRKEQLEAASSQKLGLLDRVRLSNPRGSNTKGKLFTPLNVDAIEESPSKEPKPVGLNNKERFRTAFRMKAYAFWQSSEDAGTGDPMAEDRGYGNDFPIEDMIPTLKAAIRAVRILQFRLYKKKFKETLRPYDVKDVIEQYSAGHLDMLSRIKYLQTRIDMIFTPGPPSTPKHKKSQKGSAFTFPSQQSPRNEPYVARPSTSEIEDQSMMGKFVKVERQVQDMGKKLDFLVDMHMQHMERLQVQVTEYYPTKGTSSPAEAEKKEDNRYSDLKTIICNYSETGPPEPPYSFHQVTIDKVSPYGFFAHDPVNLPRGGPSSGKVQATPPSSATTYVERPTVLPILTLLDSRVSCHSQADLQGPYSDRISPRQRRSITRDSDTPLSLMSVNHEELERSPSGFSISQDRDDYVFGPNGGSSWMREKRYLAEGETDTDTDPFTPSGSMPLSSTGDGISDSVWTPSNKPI

Compound	EC50 [1] [nM]	Emax [2] [%]	also measured
Cc1cnc2c(-c3ccc(F)c(C)c3)c(NC(=O)CCC3CCCC3)nn2c1	80	–	–
O=C(Nc1nn2cccnc2c1-c1ccccc1)C1CCCCC1	–	8	–
CCOC(=O)Nc1ccc(NCc2ccc(F)cc2)cc1N [EZOGABINE]	4380	99	–
Cc1cc(C)n2nc(NC(=O)CCC3CCCC3)c(-c3ccc(F)c(C)c3)c2n1	70	205	–
CC(C)(C)CC(=O)Nc1nn2cccnc2c1-c1ccc(F)cc1	6800	–	–
Cc1cc(-c2c(NC(=O)CC(C)(C)C)nn3cccnc23)ccc1F	2310	135	–
CC(C)(C)CC(=O)Nc1nn2cccnc2c1-c1ccccc1	–	26	–
O=C(CC1CCCCC1)Nc1nn2cccnc2c1-c1ccccc1	290	133	–
Cc1cc(-c2c(NC(=O)CC3CCCC3)nn3cccnc23)ccc1F	1170	139	–
Cc1cnc2c(-c3ccc(F)c(C)c3)c(NC(=O)CC(C)(C)C)nn2c1	590	159	–
O=C(CCC1CCCC1)Nc1nn2cccnc2c1-c1ccc(F)cc1	140	–	–
NCC1(CC(=O)O)CCCCC1 [GABAPENTIN]	–	–	Activity (Rattus norvegicus [3]): 70%
O=C(CCC1CCCC1)Nc1nn2cccnc2c1-c1ccc(C(F)(F)F)cc1	50	–	–
CCOC(=O)Nc1ccc(NCc2ccc(F)cc2)nc1N [FLUPIRTINE]	560	112	–
Cc1cc(C)n2nc(NC(=O)CC(C)(C)C)c(-c3ccc(F)c(C)c3)c2n1	50	–	–
O=C(Nc1nn2cccnc2c1-c1ccc(F)cc1)C1CCCC1	> 32000	20	–
O=C(CCC1CCCC1)Nc1nn2cccnc2c1-c1ccc(OC(F)(F)F)cc1	310	–	–
CC(C)(C)CC(=O)Nc1nn2cccnc2c1-c1ccc(OC(F)(F)F)cc1	410	–	Activity (Rattus norvegicus [4]): 52%; Activity (Rattus norvegicus [5]): 10%; Kp [6]: 3.8; Activity (Rattus norvegicus [7]): 26%; half-life [8]: 1.9 h; bioavailability [9]: 56%; AUC [10]: 706 ng·h/mL; clearance [11]: 13.3 mL/min/kg; Activity (Rattus norvegicus [12]): Dose-dependent effect
O=C(CC1CCCC1)Nc1nn2cccnc2c1-c1ccc(OC(F)(F)F)cc1	190	88	–
Cc1cnc2c(-c3ccc(F)c(C)c3)c(NC(=O)CC3CCCC3)nn2c1	140	168	–
O=C(CC1CCCC1)Nc1nn2cccnc2c1-c1ccc(C(F)(F)F)cc1	–	28	–
CC(C)(C)CC(=O)Nc1nn2c(C(C)(C)C)ccnc2c1-c1ccc(OC(F)(F)F)cc1	> 32000	–	–
CC(C)(C)c1ccnc2c(NC(=O)Cc3cc(F)cc(F)c3)cnn12	910	149	–
CC(C)(C)CC(=O)Nc1nn2cccnc2c1-c1ccc(C(F)(F)F)cc1	140	113	–
O=C(CCC1CCCCC1)Nc1nn2cccnc2c1-c1ccccc1	130	–	–
Cc1cc(C)n2nc(NC(=O)CC3CCCC3)c(-c3ccc(F)c(C)c3)c2n1	70	165	–
O=C(CC1CCCC1)Nc1nn2cccnc2c1-c1ccc(F)cc1	1000	100	–
Cc1cc(-c2c(NC(=O)CCC3CCCC3)nn3cccnc23)ccc1F	180	169	–
